Assay results reported in paper PMC5156471, “Complementary pharmacological and toxicological characterization data on the pharmacological profile of N-(2,6-dichlorophenyl)-2-(4-methyl-1-piperidinyl) acetamide” (Data in Brief, 2016).
Where two headings read alike, the source gives them in different places.

Experiments:
[1] = test system: bone marrow polychromatic erythrocytes; format: in vivo, mice
Experimental: This test was carried out following standard protocols, [5]. […] Animals were sacrificed 24 h later and the bone marrow from both femurs was flushed out using 2 mL of saline and centrifuged for 5 min at 3000 rpm. The supernatant was discarded, and the pellet was re-suspended in 0.3 mL of saline. Of this smears were made on glass slides. The slides were fixed with methanol and stained with 10% Wright–Giemsa stain. Cells were blindly scored using a light microscope at 100 X magnification. For the analysis of micronucleated cells, 1000 polychromatic erythrocytes (PCE) per animal were scored. In order to assess the cytotoxic effects of compounds, the ratio of PCE to normochromatic erythrocytes (NCE) was determined in 1000 erythrocytes, [5]. The results are presented as the mean number of micronucleated polychromatic erythrocytes (MNPCE) or the ratio PCE:NCE in individual mice (two smears per animal)±SEM for five animals per group (Table 3).

[2] = test system: brine shrimp larvae (Artemia salina L.); assay: Artemia saline lethality test; format: in vivo
[3] = test system: ICR male mice; assay: Acute toxicity in mice by the Lorke method; conditions: for Dead mice: i.p., dead/treated, observed 14 days
Experimental: (§1) Experiments were performed on ICR male mice by the Lorke method. Doses were selected according this method. In both phases, mice were observed daily for 14 days for mortality, toxic effects and behavioral changes. Restlessness, respiratory distress, seizures, diarrhea, motor activity, posture and reflexes were qualitatively determined. Body weight was also monitored. The internal organs (including the stomach, heart, lung, liver, and kidneys) were removed at the end of experiment and visually examined for lesions.

[4] = Acute toxicity in mice by the Lorke method; conditions: male, ICR, mouse, in vivo, ip
Experimental: as §1

[5] = test system: normotensive rats; assay: Cardiovascular response in normotensive conscious rats (tail cuff method); format: in vivo; conditions: 50 and 80 mg/kg, p.o.
Experimental: The hypotensive activity was determined using a standard protocol of Avila-Villarreal et al.. This study was conducted in normotensive rats. […] Systolic and diastolic blood pressure as well as heart rate were recorded before and after treatment at 0, 1, 3, 5 and 7 h by the tail cuff method using a Panlab non-invasive blood pressure system for rodents and dogs (Harvard Apparatus). Percent of reduction in heart rate (HR), systolic blood pressure (SBP) or diastolic blood pressure (DBP) were calculated using diltiazem as control (Fig. 2).

[6] = mice, i.p. (LIA, lidocaine 100 mg/kg; cyclophosphamide 40 mg/kg), 24 h, mean±SEM, five animals

SMILES | MNPCE per 1000 PCE [1, 6] | PCE:NCE [1, 6] | MNPCE per 1000 PCE ([1]; male, ICR, mouse, in vivo) | PCE:NCE ([1]; male, ICR, mouse, in vivo) | Genotoxicity in mice (in words) ([1]; mouse, in vivo) | LC50 ([2]; Artemia saline L., 24 h, 100-1000 ppm in triplicate) [ppm] | Toxicity in Brine Ship (in words) ([2]; in vivo) | Dead mice ([3]; Phase I, 10 mg/kg) | Dead mice ([3]; Phase I, 100 mg/kg) | Dead mice ([3]; Phase I, 1000 mg/kg) | Dead mice ([3]; Phase II, 140 mg/kg) | Dead mice ([3]; Phase II, 225 mg/kg) | Dead mice ([3]; Phase II, 370 mg/kg) | Dead mice ([3]; Phase II, 600 mg/kg) | Macroscopic damage of internal organs (stomach, heart, lung, liver, kidneys) ([3]; mice, visual examination at the end of experiment (14 days)) | Toxicity in mice (in words) ([3]; mouse, in vivo) | LD50 at 14 days [4] [mg/kg] | Cardiovascular responses (heart rate, systolic and diastolic blood pressure; in words) [5]
O=P1(N(CCCl)CCCl)NCCCO1 (stereo not drawn) [Cyclophosphamide, reference compound] | 82.6±1.8 | 14±0.3 |  |  |  |  |  |  |  |  |  |  |  |  |  |  |  | 
CC1CCN(CC(=O)Nc2c(Cl)cccc2Cl)CC1 [LIA, N-(2,6-dichlorophenyl)-2-(4-methyl-1-piperidinyl)acetamide] |  |  | 5.8±1.9 ^⁎^, ^# | 20.7±1.6 | not genotoxic | 335.1 ±85.7 | not toxic | 0/3 | 0/3 | 3/3 | 0/3 | 0/3 | 0/3 | 3/3 | Neither LIA nor lidocaine produced visible macroscopically damage | not toxic | 800 | does not modify cardiovascular responses
